Results reported in patent US20230172950A1 (priority 2020, published 2023).

Assays:
[1] = in vivo; cited from earlier work
Splenocytes = assay: Ex vivo splenocyte incubation (Study 24), viability by flow cytometry; format: cell-based; settings: concentrations between 100 uM up to 500 uM
Experimental: (§1) The profound in vivo activity that we observe in naïve mice and in cancer models must be mediated through the mobilized supercharged Natural Killer T cells, T cells and dendritic cells after AVM0703 HED 6 mg/kg and higher.
Splenocytes were cultured for 16 hours prior to assay execution.

[2] = system: lymphocytes, monocytes, NKT cells, T cells, dendritic cells; settings: in vivo, HED of 18 mg/kg and higher
Whole Blood = assay: Ex vivo whole blood incubation (Study 6), immune cell counts; format: cell-based; settings: concentrations between 100 uM up to 500 uM
Experimental: as §1

Compound | biologic half-life [1] | response of isolated splenocytes (Splenocytes) | effects on colon, pancreas or bone [2] | response of ex vivo whole blood (Whole Blood)
C[C@]12C=CC(=O)C=C1CC[C@@H]1[C@@H]2C(=O)C[C@@]2(C)[C@H]1CC[C@]2(O)C(=O)CO [prednisone] | about 20 hours | – | – | –
C[C@@H]1C[C@H]2[C@@H]3CCC4=CC(=O)C=C[C@]4(C)[C@@]3(F)[C@@H](O)C[C@]2(C)[C@@]1(O)C(=O)CO [dexamethasone base, dexamethasone] | – | no response | no effects | no response
